Laboratory results published in patent publication US20120208204A1, “Compositions and Methods for Inhibiting Tumor Growth” (The Brigham and Women's Hospital, Inc., priority 2009, published 2012).

Tested on: SGK2
Assay: Inhibition of kinase activity by SGK2 inhibitory compounds, single concentration
Type: biochemical
Settings: 10 μM compound
Excerpt: A library of compounds was screened for inhibitors of SGK2 and PAK3 activity by assaying phosphorylation of a generic peptide substrate either directly; or indirectly by inhibiting upstream kinase PDK1 from activating the enzyme in vitro. In both cases, the phosphorylated substrate was detected using a specific anti-phospho peptide antibody that is coupled with Eu^3+ Cryptate and XL665 conjugated with streptavidin. […] All initial hits were re-assayed as a dose response series with eight 3-fold dilutions and resulting final concentrations ranged from 0.9 nM to 20 μM.

SMILES | % Inhibition at 10 μM [%]
O=C(Nc1ccc(O)c(-c2nc3ccccc3s2)c1)c1cccc(N2C(=O)CCC2=O)c1 [LDN-0041592] | 74
CN(C)c1ccc(NC(=O)Nc2cccs2)cc1 [LDN-0058882] | 61
Nc1ccc2[nH]c(-c3ccco3)nc2c1 [LDN-0065931] | 78
Oc1ccc(-c2csc(NCc3ccco3)n2)cc1 [LDN-0071858] | 65
Oc1ccccc1C1Nc2cccc3cccc(c23)N1 [LDN-0045035] | 89
Oc1cccc2ccc(Nc3ccccn3)nc12 [LDN-0088017] | 84
O=C(NCCCN1CCCCCC1)c1ccc(Cn2c(=S)[nH]c3ccc(Br)cc3c2=O)cc1 [LDN-0036382] | 67
O=c1oc2cc(Br)c(O)c(Br)c2s1 [LDN-0060240] | 94
Nc1ccc2[nH]c(C=Cc3ccccc3)nc2c1 [LDN-0060426] | 71
O=c1cc(-c2ccccc2)oc2cc(O)c(O)c(O)c12 [LDN-0096673] | 67
O=c1c(O)c(-c2ccc(O)c(O)c2)oc2cc(O)cc(O)c12 [LDN-0052529] | 89
Cc1cc2c3c(c(Br)cc(S(=O)(=O)O)c3n1)C(=O)c1ccccc1-2 [LDN-0042012] | 87
O=C(Nc1cccc(-c2cscn2)c1)C1CCN(Cc2cccc(-c3ccco3)c2)CC1 [LDN-0117557] | 60
C1=CC2c3cccc4c3N(CC2C1)CC1CC=CC41 (stereo not drawn) [LDN-0050317] | 69
O=c1cc(-c2ccccc2)c2ccc(O)c(O)c2o1 [LDN-0063260] | 98
CC(=O)Oc1ccc(C2Nc3c(C(=O)O)ccc([N+](=O)[O-])c3C3C=CCC32)cc1 (stereo not drawn) [LDN-0033447] | 65
COc1ccc(NC(=O)CSc2ncnc3c2oc2ccccc23)cc1 [LDN-0107905] | 66
O=c1c(O)cccc2ccc(O)c(O)c12 [LDN-0096728] | 87
O=C(O)C1Nc2c(O)cccc2C2C=CCC12 (stereo not drawn) [LDN-0062847] | 95
CC1=C(C(=O)OCc2ccc3c(c2)OCO3)C(c2cccc(Oc3ccccc3)c2)NC(=O)N1 (stereo not drawn) [LDN-0025562] | 60
Oc1cc(O)c2c(c1)O[C@@]1(c3ccc(O)c(O)c3)Oc3cc(O)c4c(c3[C@@H]2[C@H]1O)O[C@H](c1ccc(O)c(O)c1)[C@H](O)[C@H]4c1c(O)cc(O)c2c1O[C@H](c1ccc(O)c(O)c1)[C@H](O)C2 [LDN-0022358] | 93
CCN(CC)c1ccc(C2Nc3cccc4cccc(c34)N2)c(O)c1 [LDN-0045032] | 68
O=[N+]([O-])c1c(Cl)cc(O)c2c1C1C=CCC1C(c1ccccc1)N2 (stereo not drawn) [LDN-0026088] | 70
O=C(CSc1nnc(-c2ccco2)[nH]1)c1ccc(O)c(O)c1 [LDN-0031187] | 67

SMILES | % Inhibition at 10 μM [%]
O=C(O)C1Nc2ccc(Br)cc2C2C=CCC12 (stereo not drawn) [LDN-0061702] | 92
Cc1c2ccccc2nc2c(F)c(NCCO)c(F)c(F)c12 [LDN-0071563] | 88
N#Cc1c(N)nc(SCC(=O)c2ccc(O)c(O)c2)c(C#N)c1-c1ccc(O)cc1 [LDN-0028574] | 91
CCCc1cc2c(cc1N)OCO2 [LDN-0073854] | 67
O=C(C=Cc1ccco1)c1ccc2c(c1)C1C=CCC1C(c1ccc(Cl)cc1)N2 (stereo not drawn) [LDN-0033450] | 94
O=c1cc(-c2cc(O)c(O)c(O)c2)oc2cc(O)cc(O)c12 [LDN-0097731] | 87
O=C(OC1Cc2c(O)cc(O)cc2OC1c1ccc(O)c(O)c1)c1cc(O)c(O)c(O)c1 (stereo not drawn) [LDN-0096721] | 93
Oc1ccc(C2Nc3cccc4cccc(c34)N2)c(O)c1 [LDN-0045038] | 91
C=CCc1cccc(C2Nc3cccc4cccc(c34)N2)c1O [LDN-0045040] | 89
c1ccc(Sc2ccc(-c3nc(-c4ccccc4)[nH]c3-c3ccccc3)cc2)cc1 [LDN-0048956] | 68
Nc1ccc2[nH]c(C=Cc3ccc(Cl)cc3)nc2c1 [LDN-0060498] | 68
Oc1cc2c(cc1O)C1c3ccc(O)c(O)c3OCC1(O)C2 (stereo not drawn) [LDN-0096990] | 91
O=c1oc2c(O)c(O)cc3c(=O)oc4c(O)c(O)cc1c4c23 [LDN-0097519] | 85
Oc1c(Cl)cc(Cl)c2c1NCCC2 [LDN-0073973] | 67
O=C(OCC1OC(OC(=O)c2cc(O)c(O)c(OC(=O)c3cc(O)c(O)c(O)c3)c2)C(OC(=O)c2cc(O)c(O)c(OC(=O)c3cc(O)c(O)c(O)c3)c2)C(OC(=O)c2cc(O)c(O)c(OC(=O)c3cc(O)c(O)c(O)c3)c2)C1OC(=O)c1cc(O)c(O)c(OC(=O)c2cc(O)c(O)c(O)c2)c1)c1cc(O)c(O)c(OC(=O)c2cc(O)c(O)c(O)c2)c1 (stereo not drawn) [LDN-0097728] | 85
COc1cccc(=O)c2c(C)n(CC(=O)c3ccccc3)c(C)c12 [LDN-0071595] | 64
O=C1C=C2CC3(O)COc4c(ccc(O)c4O)C3=C2C=C1O (stereo not drawn) [LDN-0097524] | 93
O=C(CSc1nnc(-c2ccncc2)[nH]1)c1ccc(O)c(O)c1 [LDN-0031199] | 68
CN(C)c1ccc(C2=Nc3cccc4cccc(c34)N2)cc1 [LDN-0047445] | 79
O=C(CSc1ncnc2c1oc1ccccc12)Nc1ccccc1 [LDN-0107896] | 73
O=c1c(-c2cc(O)c(O)c(O)c2)coc2cc(O)c(O)c(O)c12 [LDN-0096812] | 97
Oc1ccc(N=Cc2ccc[nH]2)cc1N=Cc1ccc[nH]1 [LDN-0085170] | 62
Cc1c2ccccc2nc2c(F)c(NC(C)C)c(F)c(F)c12 [LDN-0071567] | 88
Cc1sc(NC(=O)COc2cccc(F)c2)c(C#N)c1C [LDN-0086947] | 67

SMILES | % Inhibition at 10 μM [%]
CC(=O)Oc1cc(-c2coc3cc(OC(C)=O)c(OC(C)=O)c(OC(C)=O)c3c2=O)cc(OC(C)=O)c1OC(C)=O [LDN-0096738] | 96
Nc1ccc2oc3ccc(N)cc3c(=O)c2c1 [LDN-0063356] | 50
Cc1ccc(C)n1-c1ccc(O)c(C(=O)O)c1 [LDN-0062564] | 90
O=C(O)c1cc(O)c(=O)c2c(O)c(O)ccc2c1 [LDN-0096503] | 73
CC#CC1=C(CO)C(=O)C2OC2C1=O (stereo not drawn) [LDN-0080086] | 71
NS(=O)(=O)c1ccc(CCNC(=O)c2ccc3c(=O)n(Cc4ccco4)c(=S)[nH]c3c2)cc1 [LDN-0036137] | 74
Nc1ccc2c(c1)OC1(CCCC1)O2 [LDN-0073507] | 74
CCOc1ccc(NC(=O)CSc2ncnc3c2oc2ccccc23)cc1 [LDN-0094202] | 78
Oc1cc(O)c2c(c1)OC(c1cc(O)c(O)c(O)c1)C(O)C2 (stereo not drawn) [LDN-0097128] | 68
O=c1c(O)c(-c2ccc(O)c(O)c2)oc2cc(O)ccc12 [LDN-0058389] | 76
CN(C)c1ccc(-c2nc3cc(N)ccc3[nH]2)cc1 [LDN-0060537] | 72
C=C1c2c(Cl)ccc(O)c2C(=O)C2=C(O)C3(O)C(=O)C(C(N)=O)=C(O)C(N(C)C)C3C(O)C12.O=C(O)c1cc(S(=O)(=O)O)ccc1O (stereo not drawn) [LDN-0097423] | 76
C=C1c2cccc(O)c2C(=O)C2=C(O)C3(O)C(=O)C(C(N)=O)=C(O)C(N(C)C)C3C(O)C12.Cl (stereo not drawn) [LDN-0096663] | 70
Oc1ccccc1-c1cc(-c2ccco2)[nH]n1 [LDN-0064229] | 85
CC(C)COC(=O)c1ccc2c(c1)C1C=CCC1C(C(=O)O)N2 (stereo not drawn) [LDN-0068134] | 84
O=c1cc(C2Oc3cc(O)cc(O)c3CC2O)cc2c(C3Oc4cc(O)cc(O)c4CC3O)cc(O)c(O)c2c1O (stereo not drawn) [LDN-0096771] | 89
N#Cc1c(-c2ccco2)cc(-c2cccs2)nc1N [LDN-0071067] | 80
CN(C)c1ccc(C=Cc2nc3cc(N)ccc3[nH]2)cc1 [LDN-0060496] | 67
Oc1cccc(C2Nc3cccc4cccc(c34)N2)c1 [LDN-0045024] | 90
Cc1ccc(NC(=O)Cn2cc(C(=O)c3ccccc3)c(=O)c3ccc(C)nc32)cc1 [LDN-0130103] | 62
N#Cc1c(N)nc(SCC(=O)Nc2ccc([N+](=O)[O-])c3ccccc23)c(C#N)c1-c1ccco1 [LDN-0028673] | 71
O=c1oc2c(Br)c(O)c(Br)cc2s1 [LDN-0060733] | 93
Oc1ccc(-c2nc(-c3ccc4sc5ccccc5c4c3)c(-c3ccccc3)[nH]2)cc1O [LDN-0044885] | 70
CSc1ccc(-c2nc(-c3ccc(Sc4ccccc4)cc3)c(-c3ccccc3)[nH]2)cc1 [LDN-0044047] | 65
